Measurements: patent publication US20180360093A1, “NUTRITIONAL COMPOSITIONS AND INFANT FORMULAS TO PROMOTE MYELINATION IN THE BRAIN” (NESTEC S.A., priority 2015, published 2018)

Tested on: brain myelination
Assay: Cross-sectional correlation analysis (GLM) of formula nutrient composition versus brain myelination (MWF by mcDESPOT MRI)
Assay type: in vivo, human
Settings: children up to 5 years fed different infant formulas during infancy; voxel-wise correlations, p<0.05 corrected
Procedure: MRI brain scans of infants and children between 0 and 5 years were acquired using a white matter imaging technique. This technique provides a quantitative measure, the Myelin Water Fraction (MWF), which is a surrogate marker of myelin content. When mapped as a function of time across early childhood, myelination trajectories can be generated.
Infant formula composition: six infant formulas fed to infants participating in study were analyzed for their composition/level of myelin-relevant nutrients.
Infants included in this study were drawn from a larger longitudinal study of normal brain and behavioral development: the Brown university Assessment of Myelination and Behavior Across Maturation (BAMBAM). To focus on neurotypical development, children with known potential risk factors for learning, neurologic, or psychiatric disorders were specifically excluded during recruitment and enrollment. Thus, children with in utero alcohol or illicit substance exposure, premature (<37 weeks gestation) or multiple birth, fetal ultrasound abnormalities, complicated pregnancy (e.g., preeclampsia), APGAR scores<8, NICU admission, neurological disorder (e.g., head injury, epilepsy), psychiatric or developmental disorders in the infant, parents or siblings (including maternal depression requiring medication) were excluded. Ongoing screenings, such as the MCAT for autism, or CBCL for behavioral problems, were further used to remove enrolled children with clinically concerning behaviors or overt medical conditions (such as autism spectrum disorders).
A combination of retrospective and prospective data were acquired from parents via detailed medical histories and parental interview on type of infant formula used, percentage of breastfeeding to formula feeding, and length of exclusive breastfeeding. This information was updated at each study visit, which occurred approximately every 6 months for children under 2 years, and yearly for older children. Using this information, children were categorized into one of 2 groups: #1. Exclusively formula-fed; and #2. Exclusively breastfed for at least 90 days (3 months). Children who were fed a combination of breastmilk and formula within 3 months were excluded from our analysis. Infants within the exclusively formula-fed group were further sub-divided based on parental reports of the main infant formula used throughout the first 3 months. Main formula was defined as that given 90% of the time or more (in the case were parents used an alternate brand during vacation, for example).
Using these criteria, 94 exclusively formula-fed infants and young children were selected into group #1. These included 13 children who received formula #2; 28 who received formula #5; 8 who received formula #3; 39 who received formula #4; 5 who received formula #1 and 1 who received formula #6. A sample of 52 exclusively breast-fed infants were also selected and matched to the over formula-fed group with regards to mean age, gestation duration, birth weight, male:female ratio, ethnicity ratio, maternal education, family size, and number of languages spoken in the home (in addition to English).
Each infant was scanned using the mcDESPOT (multicomponent Driven Equilibrium Single Pulse Observation of T1 and T2) white matter imaging technique Deoni et al. (Magn. Reson. Med. 2008, 60:1372-1387), which provides a quantitative measure of the myelin water fraction (MWF) at each imaging point throughout the brain. All infants were scanned during natural (i.e. non-sedated) sleep using acoustically-muffled mcDESPOT imaging protocols. Total imaging times ranged from 19 minutes for the youngest toddlers to 24 minutes for the older 4 year-old children.

Molecule: CCCCC/C=C\C/C=C\C/C=C\C/C=C\CCCC(=O)O [ARA, arachidonic acid]
- nutritional drivers for myelination (final general linear model): identified drivers

Molecule: C[N+](C)(C)CCO [Choline]
- nutritional drivers for myelination (final general linear model): identified drivers

Molecule: Vitamin B12
- nutritional drivers for myelination (final general linear model): identified drivers

Molecule: phosphatidylcholine
- nutritional drivers for myelination (final general linear model): identified drivers

Molecule: phosphatidylinositol
- nutritional drivers for myelination (final general linear model): identified drivers

Molecule: sphingomyelin
- nutritional drivers for myelination (final general linear model): identified drivers
